Measurements taken from PubChem BioAssay AID256 (DTP/NCI, 2004).
Values joined by “and” are separate entries in the source; they are usually repeats but may differ in a detail not shown here. Equal entries are not always repeated. Toxic doses and inconclusive results are not listed. The calls were made as follows: active = survival T/C of 150% or more; inactive = T/C below 125% in these data.

Tested on: CD2F1 mice, L1210 leukemia ip, survival T/C
Experiment: NCI In Vivo Anticancer Drug Screen. Data for tumor model L1210 Leukemia (intraperitoneal) in CD2F1 (CDF1) mice
Conditions: higher = longer survival
How it was run: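 Read-out first: treated-group measurement over vehicle-control measurement, expressed as a ratio. Animals bore a transplanted tumor line and were dosed with compound or vehicle.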

[1] = endpoint: mean survival time, dose: 50.0 mg/kg/injection, schedule: Q01DX009 (ip), vehicle: Klucel (hydroxypropylcellulose) (HPC)
[2] = endpoint: mean survival time, dose: 100.0 mg/kg/injection, schedule: Q01DX009 (ip), vehicle: Klucel (hydroxypropylcellulose) (HPC)
[3] = endpoint: mean survival time, dose: 200.0 mg/kg/injection, schedule: Q01DX009 (ip), vehicle: Klucel (hydroxypropylcellulose) (HPC)
[4] = endpoint: mean survival time, dose: 100.0 mg/kg/injection, schedule: Q01DX009 (ip), vehicle: other
[5] = endpoint: mean survival time, dose: 200.0 mg/kg/injection, schedule: Q01DX009 (ip), vehicle: other
[6] = endpoint: mean survival time, dose: 400.0 mg/kg/injection, schedule: Q01DX009 (ip), vehicle: other
[7] = endpoint: mean survival time, dose: 100.0 mg/kg/injection, schedule: Q01DX009 (ip), vehicle: saline with Tween-80
[8] = endpoint: mean survival time, dose: 200.0 mg/kg/injection, schedule: Q01DX009 (ip), vehicle: saline with Tween-80
[9] = endpoint: mean survival time, dose: 400.0 mg/kg/injection, schedule: Q01DX009 (ip), vehicle: saline with Tween-80

Measured: T/C

COc1c2c(c(OC)c3c1C(=O)c1ccccc1C3=O)CC(O)CC2 (configuration not stated)
inactive: endpoint: mean survival time, dose: 12.5 mg/kg/injection, schedule: Q01DX009 (ip), vehicle: Klucel (hydroxypropylcellulose) (HPC) 92 % of control | endpoint: mean survival time, dose: 25.0 mg/kg/injection, schedule: Q01DX009 (ip), vehicle: Klucel (hydroxypropylcellulose) (HPC) 94 % of control | [1] 92 % of control | [2] 88 % of control | [3] 90 % of control

CCOC(=O)c1ccc(NC(N)=S)cc1
inactive: endpoint: mean survival time, dose: 50.0 mg/kg/injection, schedule: Q01DX009 (ip), vehicle: other 98 % of control | [4] 95 % of control | [5] 95 % of control | [6] 91 % of control

Nc1nc(-c2ccccc2)c(CCCNc2ccc(C(=O)NC(CCC(=O)O)C(=O)O)cc2)c(=O)[nH]1 (configuration not stated)
inactive: endpoint: mean survival time, dose: 100.0 mg/kg/injection, schedule: Q01DX009 (ip), vehicle: saline 94 % of control | endpoint: mean survival time, dose: 200.0 mg/kg/injection, schedule: Q01DX009 (ip), vehicle: saline 96 % of control

O=C1CSC(=S)N1c1cccc(C(F)(F)F)c1
inactive: [7] 97 % of control | [8] 112 % of control | [9] 101 % of control

COc1cccc(C(=O)CC(O)(C(F)(F)F)C(F)(F)F)c1
inactive: [4] 101 % of control | [5] 97 % of control | [6] 101 % of control

CC1(Br)C(Sc2ccccc2[N+](=O)[O-])=Nc2ccccc21 (configuration not stated)
inactive: [1] 94 % of control | [2] 94 % of control | [3] 94 % of control

O=C1CSC2(CCN(Cc3ccccc3)CC2)O1
inactive: endpoint: mean survival time, dose: 100.0 mg/kg/injection, schedule: Q01DX001 (ip), vehicle: saline 98 % of control | endpoint: mean survival time, dose: 200.0 mg/kg/injection, schedule: Q01DX001 (ip), vehicle: saline 102 % of control | endpoint: mean survival time, dose: 400.0 mg/kg/injection, schedule: Q01DX001 (ip), vehicle: saline 95 % of control

CS/C([S-])=N/[NH-].CS/C([S-])=N/[NH-].[Ni]
inactive: endpoint: mean survival time, dose: 3.13 mg/kg/injection, schedule: Q01DX009 (ip), vehicle: saline with Tween-80 97 % of control | endpoint: mean survival time, dose: 12.5 mg/kg/injection, schedule: Q01DX001 (ip), vehicle: saline with Tween-80 102 % of control

COC(=O)C(NC(=O)CCNC(=O)OCc1ccccc1)C(C)C (configuration not stated)
inactive: [7] 95 % of control | [8] 101 % of control

COC(=O)N1c2ccccc2C23CCN4CCCC5(CCC12C(C(=O)O)C5)C43 (configuration not stated)
inactive: endpoint: mean survival time, dose: 75.0 mg/kg/injection, schedule: Q01DX001 (ip), vehicle: other 93 % of control | endpoint: mean survival time, dose: 150.0 mg/kg/injection, schedule: Q01DX001 (ip), vehicle: other 101 % of control | endpoint: mean survival time, dose: 300.0 mg/kg/injection, schedule: Q01DX001 (ip), vehicle: other 107 % of control

CCOC(=O)C(=CNc1cc(C)ccn1)C(=O)OCC
inactive: [7] 109 % of control | [8] 98 % of control | [9] 94 % of control

Nc1ccc2cc3ccccc3cc2c1
inactive: endpoint: mean survival time, dose: 12.5 mg/kg/injection, schedule: Q01DX009 (ip), vehicle: saline with Tween-80 104 % of control | endpoint: mean survival time, dose: 25.0 mg/kg/injection, schedule: Q01DX009 (ip), vehicle: saline with Tween-80 104 % of control | endpoint: mean survival time, dose: 50.0 mg/kg/injection, schedule: Q01DX009 (ip), vehicle: saline with Tween-80 95 % of control | endpoint: mean survival time, dose: 100.0 mg/kg/injection, schedule: Q04DX003 (ip), vehicle: saline with Tween-80 109 % of control | endpoint: mean survival time, dose: 200.0 mg/kg/injection, schedule: Q04DX003 (ip), vehicle: saline with Tween-80 111 % of control | endpoint: mean survival time, dose: 400.0 mg/kg/injection, schedule: Q04DX003 (ip), vehicle: saline with Tween-80 94 % of control

O=C(NO)c1cc(O)c(O)c(O)c1
active: endpoint: mean survival time, dose: 200.0 mg/kg/injection, schedule: Q01DX009 (ip), vehicle: distilled water + Tween-80 154 % of control | endpoint: mean survival time, dose: 200.0 mg/kg/injection, schedule: Q01DX009 (ip), vehicle: water 156 % of control | endpoint: median survival time, dose: 200.0 mg/kg/injection, schedule: Q01DX009 (ip), vehicle: distilled water + Tween-80 158 % of control and 162 % of control
inactive: endpoint: mean survival time, dose: 100.0 mg/kg/injection, schedule: Q01DX009 (ip), vehicle: water 117 % of control | endpoint: mean survival time, dose: 400.0 mg/kg/injection, schedule: Q01DX009 (ip), vehicle: distilled water + Tween-80 104 % of control | endpoint: mean survival time, dose: 400.0 mg/kg/injection, schedule: Q01DX009 (ip), vehicle: water 100 % of control | endpoint: mean survival time, dose: 800.0 mg/kg/injection, schedule: Q01DX009 (ip), vehicle: distilled water + Tween-80 116 % of control | endpoint: median survival time, dose: 25.0 mg/kg/injection, schedule: Q01DX009 (ip), vehicle: distilled water + Tween-80 107 % of control | endpoint: median survival time, dose: 50.0 mg/kg/injection, schedule: Q01DX009 (ip), vehicle: distilled water + Tween-80 120 % of control | endpoint: median survival time, dose: 400.0 mg/kg/injection, schedule: Q01DX009 (ip), vehicle: distilled water + Tween-80 90 % of control

O=C1CCCCCC1c1ccccc1 (configuration not stated)
inactive: [7] 102 % of control | [8] 102 % of control | [9] 98 % of control
